Experimental data from US11766419B2, “Mebeverine as soluble epoxide hydrolase inhibitor” (Banasthali Vidyapith, priority 2021, dated 2023).
Where “and” joins values, the source holds several entries; their conditions need not be identical. Equal values may be shown once.

Experiments:
sEH = target: T1, sEH (Homo sapiens, UniProt P34913); assay: In vitro sEH activity assay (PHOME substrate, fluorescence); format: biochemical; design: sEH inhibitory activity (in words): dose or concentration left out as unconfirmed; conditions: for IC50: sEH, PHOME substrate
T1 sequence (P34913 1-555): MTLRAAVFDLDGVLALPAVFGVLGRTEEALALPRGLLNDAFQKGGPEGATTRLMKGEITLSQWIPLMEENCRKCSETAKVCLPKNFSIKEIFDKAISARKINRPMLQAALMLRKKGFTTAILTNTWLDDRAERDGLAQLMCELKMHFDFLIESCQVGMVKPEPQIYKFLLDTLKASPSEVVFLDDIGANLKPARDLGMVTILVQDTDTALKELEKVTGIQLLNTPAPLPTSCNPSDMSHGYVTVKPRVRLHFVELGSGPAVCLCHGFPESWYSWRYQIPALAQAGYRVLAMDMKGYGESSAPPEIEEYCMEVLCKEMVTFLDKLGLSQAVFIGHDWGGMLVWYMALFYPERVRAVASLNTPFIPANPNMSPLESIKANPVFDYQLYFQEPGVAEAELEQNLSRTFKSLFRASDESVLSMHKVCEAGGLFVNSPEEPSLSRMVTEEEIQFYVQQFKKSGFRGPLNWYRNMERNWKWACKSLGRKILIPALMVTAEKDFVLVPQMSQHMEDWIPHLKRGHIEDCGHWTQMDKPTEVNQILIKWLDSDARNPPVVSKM
Experimental: Hydrolysis of PHOME by sEH results in the release of cyanohydrins that further decomposes to cyanide ion and 6-methoxy-2-naphthaldehyde (highly fluorescent). The fluorescence was analyzed at an excitation and emission wavelength of 330 nm and 465 nm respectively.

[1] = test system: isolated rat aortic strip; assay: Ex-vivo relaxation of KCl pre-constricted isolated rat aortic strip; conditions: aortic rings constricted with 80 mmol KCl
Experimental: Aortic rings were suspended in organ baths containing a modified Krebs buffer and bubbled with a mixture of 95% O2/5% CO2. Rings were connected to an isometric force transducer, resting tension was set to 5 g and constricted with 80 mmol KCl. The relaxation of these pre-constricted aortic trips at different concentrations of mebeverine (10^−9-10^−[…]) are tabulated in Table 2 and plotted in FIG. 2.

[2] = test system: DOCA-induced hypertensive rats; assay: DOCA induced hypertension, blood pressure; format: in vivo, rat
Experimental: Wistar albino male rats were divided into four experimental groups (I, II, III and IV). Groups (II-IV) were administered with DOCA (20 mg/kg in 5% DMSO) intraperitoneally and drinking water was replaced by 2% NaCl. After induction of high blood pressure, Groups III and IV were treated with 10 mg/kg and 20 mg/kg mebeverine orally, respectively. At the end of this experimental period SAP, DAP and MAP were measured. The results are tabulated below in Tables 4A, 4B and 4C, respectively, and are plotted in FIGS. 4a, 4b and 4c.

[3] = test system: angiotensin-II induced hypertensive rats; assay: Angiotensin II induced hypertension, blood pressure; format: in vivo, rat
Experimental: Wistar albino male rats were divided into four experimental groups (I, II, III and IV). Groups II-IV were infused with Angiotensin II at a continuous rate via subcutaneously implanted osmotic mini pump for 7 days. After induction of high blood pressure, (>140/90 mm of Hg), Groups III and IV were administered with mebeverine twice daily for five consecutive days at 10 mg/kg and 20 mg/kg doses respectively. At the end of this experimental period SAP, DAP and MAP were measured. The results are tabulated below in Tables 3A, 3B, and 3C, respectively, and are plotted in FIGS. 3a, 3b and 3c.

[4] = test system: Lipopolysaccharide (LPS)-induced hyperlipidaemic rats; assay: LPS-induced hyperlipidemia, serum lipid profile and CRI/AI; format: in vivo, rat; conditions: for AI: Atherogenic index; for CRI: Coronary risk index; for Cholesterol / HDL / LDL / Triglycerides / VLDL: serum
Experimental: (§1) Wistar albino male rats were divided into different experimental groups—Single dose of 10 mg/kg, i.p. of LPS was administered to all the groups (II-IV). After 3 days of induction mebeverine was orally given twice daily for 5 days to groups (III-IV). After last dose, on day 5, blood samples were collected from all experimental rats for analysis of serum lipid profile parameters and CRI/AI. The results are tabulated below in Table 8 and plotted in FIGS. 11 (a-e) and 12. Biochemical estimations in hepatic tissue samples were also analyzed.

[5] = test system: DOCA-induced hypertensive rats; assay: SOD and TBAR level in heart and aortic tissue, DOCA induced hypertension; format: in vivo, rat
Experimental: Wistar albino male rats were divided into four experimental groups (I, II, III and IV). Groups (II-IV) were administered with DOCA (20 mg/kg in 5% DMSO) intraperitoneally and drinking water was replaced by 2% NaCl. […] At the end of this experimental period SAP, DAP and MAP were measured. The results are tabulated below in Tables 4A, 4B and 4C, respectively, and are plotted in FIGS. 4a, 4b and 4c. Additionally, the levels of oxidative stress biomarkers, superoxide dismutase (SOD) and thiobarbituric acid (TBARs)s in heart and aortic tissue were also measured (Cayman commercial kit). The results are tabulated in Table 5 and plotted in FIGS. 5a and 5b (TBAR level) and 6a and 6b (SOD level).

[6] = test system: Triton WR-1339 induced hyperlipidaemic rats; assay: TBAR and SOD level in hepatic tissue, Triton WR-1339 induced hyperlipidemia; format: in vivo, rat
Experimental: (§2) Wistar albino male rats were divided into four experimental groups (I, II, III and IV). Groups II-IV were treated with intraperitoneal injection of Triton WR-1339 (200 mg/kg in 2% gum acacia) in 12 h fasted rats to induce hyperlipidemia. Group III and IV were orally administered with Mebeverine twice daily for 3 days at 10 mg/kg and 20 mg/kg. After 48 h, induction of hyperlipidemia blood serum was investigated for total cholesterol and triglycerides. Blood samples were collected from all experimental rats on day 6 (4 days after start of treatment), and, subsequently, serum was separated for analysis of serum lipid profile parameters and CRI/AI. Liver was excised and stored at −80° C. until biochemical parameters in hepatic tissue samples were analysed. The results are tabulated below in Table 6 and plotted in FIGS. 7 (a-e) and 8.
In addition, the effect on oxidative stress markers on hepatic tissue were also observed. The results are shown in Table 7 and plotted in FIGS. 9 and 10.

[7] = test system: Lipopolysaccharide (LPS)-induced hyperlipidemic rats; assay: TBAR and SOD level in hepatic tissue, LPS-induced hyperlipidemia; format: in vivo, rat
Experimental: as §1, with “The results are tabulated below in Table 8 and plotted in FIGS. 11 (a-e) and 12.” left out

[8] = test system: Triton WR-1339 induced hyperlipidaemic rats; assay: Triton WR-1339 induced hyperlipidemia, serum lipid profile and CRI/AI; format: in vivo, rat; conditions: for CRI: Coronary risk index; for Cholesterol / HDL / LDL / Triglycerides / VLDL: serum
Experimental: as §2

[9] = 10 mg/kg orally twice daily for 5 days
[10] = 20 mg/kg orally twice daily for 5 days
[11] = 10 mg/kg orally twice daily for 3 days
[12] = 20 mg/kg orally twice daily for 3 days

## C[C@H](CS)C(=O)N1CCC[C@H]1C(=O)O [Captopril, captopril]
sEH; remaining enzyme activity
  sEH activity: 100%
sEH
  IC50: 693 nM

## CCN(CCCCOC(=O)c1ccc(OC)c(OC)c1)C(C)Cc1ccc(OC)cc1 (centres unmarked) [Mebeverine]
[1]; Mebeverine conc 10^−4 nM (maximal relaxant effect)
  % relaxation: 79.3±0.01% and 79.3%
[1]; Mebeverine conc 10^−5 nM
  % relaxation: 71.1%
[1]; Mebeverine conc 10^−6 nM
  % relaxation: 64.9%
[1]; Mebeverine conc 10^−7 nM
  % relaxation: 52.2%
[1]; Mebeverine conc 10^−8 nM
  % relaxation: 23.9%
[1]; Mebeverine conc 10^−9 nM
  % relaxation: 14.5%
[2]; 10 mg/kg orally, D 0
  DAP: 168 ± 10.60 mm Hg
  MAP: 179 ± 7.63 mm Hg
  SAP: 213 ± 2.82 mm Hg
[2]; 10 mg/kg orally, D 3
  DAP: 156 ± 9.89 mm Hg
  MAP: 170 ± 0.52 mm Hg
  SAP: 187 ± 8.48 mm Hg
[2]; 10 mg/kg orally, D 4
  DAP: 101 ± 1.52 mm Hg
  MAP: 114 ± 6.08 mm Hg
  SAP: 140 ± 8.00 mm Hg
[2]; 10 mg/kg orally, D 5
  DAP: 84 ± 1.06 mm Hg
  MAP: 99 ± 0.77 mm Hg
  SAP: 108 ± 1.41 mm Hg
[2]; 20 mg/kg orally, D 0
  DAP: 185 ± 3.50 mm Hg
  MAP: 199 ± 6.54 mm Hg
  SAP: 226 ± 4.94 mm Hg
[2]; 20 mg/kg orally, D 3
  DAP: 128 ± 7.07 mm Hg
  MAP: 140 ± 1.71 mm Hg
  SAP: 166 ± 6.36 mm Hg
[2]; 20 mg/kg orally, D 4
  DAP: 83 ± 5.13 mm Hg
  MAP: 96 ± 7.57 mm Hg
  SAP: 114 ± 10.01 mm Hg
[2]; 20 mg/kg orally, D 5
  DAP: 72 ± 0.70 mm Hg
  MAP: 86 ± 0.63 mm Hg
  SAP: 98 ± 1.09 mm Hg
[3]; 10 mg/kg twice daily, D 0
  DAP: 189 ± 13.43 mm Hg
  MAP: 200 ± 8.40 mm Hg
  SAP: 213 ± 6.360 mm Hg
[3]; 10 mg/kg twice daily, D 3
  DAP: 168 ± 6.86 mm Hg
  MAP: 182 ± 12.02 mm Hg
  SAP: 208 ± 6.970 mm Hg
[3]; 10 mg/kg twice daily, D 4
  DAP: 95 ± 11.70 mm Hg
  MAP: 110 ± 16.78 mm Hg
  SAP: 146 ± 5.370 mm Hg
[3]; 10 mg/kg twice daily, D 5
  DAP: 92 ± 4.24 mm Hg
  MAP: 108 ± 1.07 mm Hg
  SAP: 140 ± 2.120 mm Hg
[3]; 20 mg/kg twice daily, D 0
  DAP: 152 ± 1.40 mm Hg
  MAP: 170 ± 4.30 mm Hg
  SAP: 193 ± 3.530 mm Hg
[3]; 20 mg/kg twice daily, D 3
  DAP: 109 ± 28.80 mm Hg
  MAP: 128 ± 7.07 mm Hg
  SAP: 147 ± 5.600 mm Hg
[3]; 20 mg/kg twice daily, D 4
  DAP: 86 ± 1.70 mm Hg
  MAP: 98 ± 1.51 mm Hg
  SAP: 123 ± 7.28 mm Hg
[3]; 20 mg/kg twice daily, D 5
  DAP: 82 ± 3.53 mm Hg
  MAP: 92 ± 2.82 mm Hg
  SAP: 119 ± 7.07 mm Hg
[3]; both 10 mg/kg and 20 mg/kg, P<0.001
  Effect on high blood pressure (in words): reduces the high blood pressure
[4]; [9]
  AI: 2.14 ± 0.02
  CRI: 3.14 ± 0.14
  Cholesterol: 132.5 ± 4.24 mg/dL
  HDL: 42.0 ± 1.41 mg/dL
  LDL: 58.3 ± 3.25 mg/dL
  Triglycerides: 158.5 ± 3.58 mg/dL
  VLDL: 31.6 ± 0.34 mg/dL
[4]; [10]
  AI: 1.01 ± 0.17
  CRI: 2.01 ± 0.17
  Cholesterol: 103.50 ± 1.41 mg/dL
  HDL: 51.00 ± 3.53 mg/dL
  LDL: 30.0 ± 3.25 mg/dL
  Triglycerides: 110.00 ± 2.82 mg/dL
  VLDL: 22.0 ± 0.56 mg/dL
[5]; Aortic tissue, 10 mg/kg
  SOD Level: 70.20 ± 0.28 U/g tissue
  TBAR level: 0.87 ± 0.02 nmol/mg protein
[5]; Aortic tissue, 20 mg/kg
  SOD Level: 90.21 ± 0.21 U/g tissue
  TBAR level: 0.71 ± 0.03 nmol/mg protein
[5]; Heart tissue, 10 mg/kg
  SOD Level: 73.04 ± 0.29 U/g tissue
  TBAR level: 0.88 ± 0.03 nmol/mg protein
[5]; Heart tissue, 20 mg/kg
  SOD Level: 86.24 ± 0.37 U/g tissue
  TBAR level: 0.68 ± 0.01 nmol/mg protein
[5]; aortic and heart tissue
  SOD activity (in words): significant dose dependent increase
  TBARs concentration (in words): significant dose dependent decrease
[6]; 10 mg/kg
  SOD: 65.13 ± 0.22 U/g protein
  TBAR: 0.78 ± 0.01 nmol/mg protein
[6]; 20 mg/kg
  SOD: 87.27 ± 0.30 U/g protein
  TBAR: 0.70 ± 0.01 nmol/mg protein
[7]; 10 mg/kg
  SOD: 67.13 ± 0.21 U/g protein
  TBAR: 1.10 ± 0.01 nmol/mg protein
[7]; 20 mg/kg
  SOD: 74.50 ± 0.15 U/g protein
  TBAR: 0.701 ± 0.02 nmol/mg protein
[8]; 10 mg/kg
  HDL (in words): increases HDL
  triglycerides, cholesterol, LDL and VLDL and CRI/AI (in words): markedly decreases
[8]; [11]
  AT: 2.32 ± 0.02
  CRI: 3.32 ± 0.02
  Cholesterol: 108.00 ± 8.48 mg/dL
  HDL: 32.50 ± 2.12 mg/dL
  LDL: 55.90 ± 9.75 mg/dL
  Triglycerides: 98.00 ± 9.8 mg/dL
  VLDL: 19.60 ± 3.25 mg/dL
[8]; [12]
  AT: 0.79 ± 0.19
  CRI: 1.79 ± 0.02
  Cholesterol: 95.00 ± 4.94 mg/dL
  HDL: 53.00 ± 1.59 mg/dL
  LDL: 26.90 ± 1.83 mg/dL
  Triglycerides: 77.00 ± 9.19 mg/dL
  VLDL: 15.40 ± 1.83 mg/dL
sEH; dose-dependent
  sEH inhibitory activity (in words): potent inhibitor of sEH enzyme
sEH
  IC50: 3.9 nM
